{
  "source": "the supplement of paper PMC8967900",
  "data": [
    {"system": "SUP-B15", "test": "selective drug sensitivity score (sDSS, relative to normal bone marrow) (sDSS (score)); higher = more potent and effective on the cell line relative to normal bone marrow cells", "conditions": "72 h", "values": [
      {"compound": "Cn1cc(-c2ccc(F)c(C(F)(F)F)c2)nc1C1CCN(c2ncnc3[nH]ncc23)CC1", "note": "(top concentration 10000 nM);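 also: ALL cell lines in 384-well plates, five doses spanning 10,000-fold, each plate scaled between vehicle and 100 µmol/L benzalkonium chloride controls, sDSS an adapted area-under-curve metric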", "selective drug sensitivity score": 8.76},
      {"compound": "O=C(Nc1ccc2[nH]nc(-c3ccncc3)c2c1)[C@@H]1CCN(CC(=O)N2CCN(c3ccc(-c4ncccn4)cc3)CC2)C1", "note": "(top concentration 10000 nM)", "selective drug sensitivity score": 12.6},
      {"compound": "CC(C)(C)c1cc(NC(=O)Nc2ccc(Oc3ccnc4[nH]c(=O)cnc34)cc2F)n(-c2ccccc2)n1", "note": "(top concentration 25000 nM)", "selective drug sensitivity score": 10.6},
      {"compound": "Nc1ncnc2c1nc(N)n2[C@@H]1O[C@H](CO)[C@@H](O)[C@H]1O", "note": "[8-amino-adenosine] (top concentration 50000 nM)", "selective drug sensitivity score": 7.28},
      {"compound": "CC(C)[C@@H](CS(=O)(=O)C(C)C)N1C(=O)[C@@](C)(CC(=O)O)C[C@H](c2cccc(Cl)c2)[C@H]1c1ccc(Cl)cc1", "note": "[AMG-232] (top concentration 10000 nM)", "selective drug sensitivity score": 16.5},
      {"compound": "CC(C)[C@H](C(=O)Nc1ccc(C(=O)NO)cc1)c1ccccc1", "note": "[AR-42] (top concentration 10000 nM)", "selective drug sensitivity score": 9.58},
      {"compound": "O=C(Nc1c[nH]nc1-c1nc2ccc(CN3CCOCC3)cc2[nH]1)NC1CC1", "note": "[AT9283] (top concentration 1000 nM)", "selective drug sensitivity score": 12.6},
      {"compound": "CCN(CCO)CCCOc1ccc2c(Nc3cc(CC(=O)Nc4cccc(F)c4)[nH]n3)ncnc2c1", "note": "[AZD1152-HQPA] (top concentration 1000 nM)", "selective drug sensitivity score": 22.2},
      {"compound": "Cc1[nH]nc(C(F)(F)F)c1Cc1sc2c(c1C(=O)N1C[C@](C)(O)CO1)c(=O)n(C)c(=O)n2C(C)C", "note": "[AZD3965] (top concentration 1000 nM)", "selective drug sensitivity score": 7.1}
    ]},
    {"system": "KARPAS-45", "test": "selective drug sensitivity score (sDSS, relative to normal bone marrow) (sDSS (score)); higher = more potent and effective on the cell line relative to normal bone marrow cells", "conditions": "72 h", "values": [
      {"compound": "COC12C(COC(N)=O)C3=C(C(=O)C(C)=C(N)C3=O)N1CC1NC12", "note": "(stereo in doubt) [Mitomycin_C] (top concentration 10000 nM)", "selective drug sensitivity score": -2.86},
      {"compound": "Cc1c(-c2c(-c3ccc(F)o3)sc3ncnc(O[C@H](Cc4ccccc4OCc4ccnn4CC(F)(F)F)C(=O)O)c23)ccc(OCCN2CCN(C)CC2)c1Cl", "note": "(top concentration 1000 nM)", "selective drug sensitivity score": -0.24},
      {"compound": "Cc1ncc(Cl)cc1NCc1ccc(C(=O)N[C@@H](CC2CCCC2)C(=O)NC2CC2)s1", "note": "(top concentration 5000 nM)", "selective drug sensitivity score": -0.94},
      {"compound": "CCn1c(-c2nonc2N)nc2c(C#CC(C)(C)O)ncc(OC[C@H]3CCCNC3)c21", "note": "(top concentration 10000 nM)", "selective drug sensitivity score": 6.28},
      {"compound": "CN(c1ncccc1CNc1nc(Nc2ccc3c(c2)CC(=O)N3)ncc1C(F)(F)F)S(C)(=O)=O", "note": "(top concentration 10000 nM)", "selective drug sensitivity score": 2.72},
      {"compound": "CNc1ncc2cc(-c3cc(NC(=O)NCCC(C)(C)C)c(F)cc3C)c(C)nc2n1", "note": "(top concentration 10000 nM)", "selective drug sensitivity score": 5.26},
      {"compound": "C[C@@]1(C(=O)Nc2ccc(F)nc2)CCCN1c1nc(Nc2cc(C3CC3)n[nH]2)c2cccn2n1", "note": "(top concentration 10000 nM)", "selective drug sensitivity score": 6.18},
      {"compound": "Cc1nc(Nc2n[nH]c3c2CN(C(=O)N[C@H](CN(C)C)c2ccccc2)C3(C)C)c2sccc2n1", "note": "(top concentration 10000 nM)", "selective drug sensitivity score": 9.48},
      {"compound": "Cn1cc(-c2[nH]c3cc(NC(=O)[C@H](N)C4CCCCC4)cc4c3c2C=NNC4=O)cn1", "note": "(top concentration 10000 nM)", "selective drug sensitivity score": 6.78},
      {"compound": "Cn1cc(-c2ccc(F)c(C(F)(F)F)c2)nc1C1CCN(c2ncnc3[nH]ncc23)CC1", "note": "(top concentration 10000 nM)", "selective drug sensitivity score": 0.06},
      {"compound": "O=C(Nc1ccc2[nH]nc(-c3ccncc3)c2c1)[C@@H]1CCN(CC(=O)N2CCN(c3ccc(-c4ncccn4)cc3)CC2)C1", "note": "(top concentration 10000 nM)", "selective drug sensitivity score": -0.84},
      {"compound": "CC(C)(C)c1cc(NC(=O)Nc2ccc(Oc3ccnc4[nH]c(=O)cnc34)cc2F)n(-c2ccccc2)n1", "note": "(top concentration 25000 nM)", "selective drug sensitivity score": -1.48},
      {"compound": "Nc1ncnc2c1nc(N)n2[C@@H]1O[C@H](CO)[C@@H](O)[C@H]1O", "note": "[8-amino-adenosine] (top concentration 50000 nM)", "selective drug sensitivity score": -3.32},
      {"compound": "CC(C)[C@@H](CS(=O)(=O)C(C)C)N1C(=O)[C@@](C)(CC(=O)O)C[C@H](c2cccc(Cl)c2)[C@H]1c1ccc(Cl)cc1", "note": "[AMG-232] (top concentration 10000 nM)", "selective drug sensitivity score": -8.34},
      {"compound": "CC(C)[C@H](C(=O)Nc1ccc(C(=O)NO)cc1)c1ccccc1", "note": "[AR-42] (top concentration 10000 nM)", "selective drug sensitivity score": 10.8},
      {"compound": "O=C(Nc1c[nH]nc1-c1nc2ccc(CN3CCOCC3)cc2[nH]1)NC1CC1", "note": "[AT9283] (top concentration 1000 nM)", "selective drug sensitivity score": 9.22},
      {"compound": "CCN(CCO)CCCOc1ccc2c(Nc3cc(CC(=O)Nc4cccc(F)c4)[nH]n3)ncnc2c1", "note": "[AZD1152-HQPA] (top concentration 1000 nM)", "selective drug sensitivity score": 24.7},
      {"compound": "Cc1[nH]nc(C(F)(F)F)c1Cc1sc2c(c1C(=O)N1C[C@](C)(O)CO1)c(=O)n(C)c(=O)n2C(C)C", "note": "[AZD3965] (top concentration 1000 nM)", "selective drug sensitivity score": 0}
    ]},
    {"system": "697", "test": "selective drug sensitivity score (sDSS, relative to normal bone marrow) (sDSS (score)); higher = more potent and effective on the cell line relative to normal bone marrow cells", "conditions": "72 h", "values": [
      {"compound": "COC12C(COC(N)=O)C3=C(C(=O)C(C)=C(N)C3=O)N1CC1NC12", "note": "(stereo in doubt) [Mitomycin_C] (top concentration 10000 nM)", "selective drug sensitivity score": 2.34},
      {"compound": "Cc1c(-c2c(-c3ccc(F)o3)sc3ncnc(O[C@H](Cc4ccccc4OCc4ccnn4CC(F)(F)F)C(=O)O)c23)ccc(OCCN2CCN(C)CC2)c1Cl", "note": "(top concentration 1000 nM)", "selective drug sensitivity score": -0.84},
      {"compound": "Cc1ncc(Cl)cc1NCc1ccc(C(=O)N[C@@H](CC2CCCC2)C(=O)NC2CC2)s1", "note": "(top concentration 5000 nM)", "selective drug sensitivity score": -0.94},
      {"compound": "CCn1c(-c2nonc2N)nc2c(C#CC(C)(C)O)ncc(OC[C@H]3CCCNC3)c21", "note": "(top concentration 10000 nM)", "selective drug sensitivity score": 8.28},
      {"compound": "CN(c1ncccc1CNc1nc(Nc2ccc3c(c2)CC(=O)N3)ncc1C(F)(F)F)S(C)(=O)=O", "note": "(top concentration 10000 nM)", "selective drug sensitivity score": 2.62},
      {"compound": "CNc1ncc2cc(-c3cc(NC(=O)NCCC(C)(C)C)c(F)cc3C)c(C)nc2n1", "note": "(top concentration 10000 nM)", "selective drug sensitivity score": 10.5},
      {"compound": "C[C@@]1(C(=O)Nc2ccc(F)nc2)CCCN1c1nc(Nc2cc(C3CC3)n[nH]2)c2cccn2n1", "note": "(top concentration 10000 nM)", "selective drug sensitivity score": 11.8},
      {"compound": "Cc1nc(Nc2n[nH]c3c2CN(C(=O)N[C@H](CN(C)C)c2ccccc2)C3(C)C)c2sccc2n1", "note": "(top concentration 10000 nM)", "selective drug sensitivity score": 16.4},
      {"compound": "Cn1cc(-c2[nH]c3cc(NC(=O)[C@H](N)C4CCCCC4)cc4c3c2C=NNC4=O)cn1", "note": "(top concentration 10000 nM)", "selective drug sensitivity score": 9.38},
      {"compound": "Cn1cc(-c2ccc(F)c(C(F)(F)F)c2)nc1C1CCN(c2ncnc3[nH]ncc23)CC1", "note": "(top concentration 10000 nM)", "selective drug sensitivity score": 0.76},
      {"compound": "O=C(Nc1ccc2[nH]nc(-c3ccncc3)c2c1)[C@@H]1CCN(CC(=O)N2CCN(c3ccc(-c4ncccn4)cc3)CC2)C1", "note": "(top concentration 10000 nM)", "selective drug sensitivity score": 0.66},
      {"compound": "CC(C)(C)c1cc(NC(=O)Nc2ccc(Oc3ccnc4[nH]c(=O)cnc34)cc2F)n(-c2ccccc2)n1", "note": "(top concentration 25000 nM)", "selective drug sensitivity score": 4.72},
      {"compound": "Nc1ncnc2c1nc(N)n2[C@@H]1O[C@H](CO)[C@@H](O)[C@H]1O", "note": "[8-amino-adenosine] (top concentration 50000 nM)", "selective drug sensitivity score": 6.48},
      {"compound": "CC(C)[C@@H](CS(=O)(=O)C(C)C)N1C(=O)[C@@](C)(CC(=O)O)C[C@H](c2cccc(Cl)c2)[C@H]1c1ccc(Cl)cc1", "note": "[AMG-232] (top concentration 10000 nM)", "selective drug sensitivity score": 9.06},
      {"compound": "CC(C)[C@H](C(=O)Nc1ccc(C(=O)NO)cc1)c1ccccc1", "note": "[AR-42] (top concentration 10000 nM)", "selective drug sensitivity score": 9.58},
      {"compound": "O=C(Nc1c[nH]nc1-c1nc2ccc(CN3CCOCC3)cc2[nH]1)NC1CC1", "note": "[AT9283] (top concentration 1000 nM)", "selective drug sensitivity score": 12.1},
      {"compound": "CCN(CCO)CCCOc1ccc2c(Nc3cc(CC(=O)Nc4cccc(F)c4)[nH]n3)ncnc2c1", "note": "[AZD1152-HQPA] (top concentration 1000 nM)", "selective drug sensitivity score": 16.5},
      {"compound": "Cc1[nH]nc(C(F)(F)F)c1Cc1sc2c(c1C(=O)N1C[C@](C)(O)CO1)c(=O)n(C)c(=O)n2C(C)C", "note": "[AZD3965] (top concentration 1000 nM)", "selective drug sensitivity score": 3.6}
    ]}
  ]
}
